# Laboratory results published in EP0217372A2, “Polyoxygenated labdane derivatives, process for their preparation and their use as medicaments” (HOECHST AKTIENGESELLSCHAFT, priority 1985, dated 1987).
# Where a name gives a salt, the structure may show the parent alone. Read-outs that look alike come from different tables or passages of the source.
# Legend:
# [1] = tested on: Isoliertes Meerschweinchenherz; assay: Isolated guinea pig heart (Langendorff method); set-up: species or system Meerschweinchen; details: Cavia porcellus; for activation at 0.01 mg: Dosis 10 µg injected into the aorta; for activation at 0.03 mg: Dosis 30 µg injected into the aorta
# Text: 1. Isoliertes Meerschweinchenherz (Langendorff-Methode)
# Es wird ein Meerschweinchen männlichen oder weiblichen Geschlechts mit einem Gewicht zwischen 300 und 400 g getötet und das Herz mit einem kleinen Teil der Aorta entnommen. Das Herz wird umgehend in einen Perfusionsapparat gebracht, in dem die Aorta auf der Glaskanüle fixiert wird. Die aus oxygenierter Ringerlösung bestehende Perfusionslösung wird bei konstantem Druck aus dem Behälter zugeführt, der durch aus dem Thermostat zirkulierendes Wasser auf 37°C angewärmt wird. Die zu untersuchenden Verbindungen der Erfindung werden zur Herstellung einer Lösung mit bekannter Konzentration unter Verwendung stöchiometrischer 0,1 n HC1 bzw. deren Salze direkt in Wasser gelöst. Die erhaltene Lösung wird durch eine Polyäthylenkanüle direkt in die Aorta injiziert und die Wirkungen auf die Kontraktionskraft, Herzfrequenz und Koronardurchblutung auf einem 3-Kanal-Physioscribe-Rekorder aufgezeichnet. Die prozentuale Zu- oder Abnahme der inotropen Wirkung wird nach dem intialen Ausgangswert berechnet.
# Narkotisierter Hund = assay: In vivo test in the anaesthetised dog (left ventricular dp/dt max); set-up: species or system Beagle-Hunde; details: injected into the femoral vein, pentobarbital anaesthesia; for ED50: Canis lupus familiaris, iv
# Method: 3. In vivo-Tests am narkotisierten Hund
# Beagle-Hunde beiderlei Geschlechts mit einem Gewicht zwischen 10 und 15 kg werden mit Na-Pentobarbitol (35 mg/kg, i.v.) narkotisiert. Nach Einführen eines Endotrachealtubus werden die Femoralarterie und -vene mit einer Kanüle zur Messung des Blutdrucks bzw. zur Verabreichung von Medikamenten versehen. Der Druck des linken Ventrikels wird mit Hilfe eines Millar-Katheters gemessen und dp/dt max wird berechnet mit einem Hugo-Sachs-Differentiometer. Die Herzfrequenz wird mit Hilfe eines Kardiotachometers aus ECG-Signalen bestimmt. Alle kontinuierlich gemessenen Parameter werden mit einem Hellige-Sechs-Kanal-Recorder aufgezeichnet.
# Die zu untersuchenden erfindungsgemäßen Verbindungen werden in destilliertem Wasser gelöst. In allen Experimenten werden 1%ige Lösungen verwendet. Die Lösungen werden in die Femoralvene injiziert und die Dosis-Wirkung-Relation berechnet.
# Meerschweinchen-Vorhof = assay: Electrically stimulated left atrium, contractile force; details: contractile force of electrically stimulated left atrium, recorded 7 to 10 min
# Text: 2. Elektrisch stimulierter linker Vorhof
# Es wird ein Meerschweinchen männlichen oder weiblichen Geschlechts mit einem Gewicht von 400 g getötet, das Herz entnommen und bei Zimmertemperatur in Ringerlösung eingebracht. Dann wird der linke Vorhof isoliert, an einem Organhalter befestigt und das Präparat in ein Organbad mit Ringerlösung von Zimmertemperatur gebracht. In das Organbad wird ein lebhafter Strom eines Gemisches von Kohlendioxid und Sauerstoff (95 % 02 und 5 % C02) geleitet. Dann wird der linke Vorhof elektrisch stimuliert. Anschließend wird aus einer der erfindungsgemäßen Verbindungen oder ih- rem Salz gegebenenfalls unter Verwendung von stöchiometrischer wäßriger 0,1 n HC1-Lösung eine wäßrige Lösung bekannter Konzentrationen hergestellt.
# Diese Lösung wird dem Bad zugesetzt und die Kontraktionskraft des Vorhofes 7 bis 10 Minuten lang auf einem 4-Kanal-Kohden-Rekorder registriert. Die Wirkung wird aus den ermittelten Daten als EC50 berechnet angegeben.
# Augeninnendruck (IOP) = assay: Intraocular pressure in the conscious rabbit; type: in vivo, Kaninchen; details: for Senkung des IOP: percent decrease from baseline; for Dauer: duration of the IOP-lowering effect
# Text: Messung des Augeninnendruckes am wachen Kaninchen
# Für die Untersuchung wird ein männliches oder weibliches Kaninchen mit einem Gewicht von 2 bis 3 k^g ausgewählt. Der Augeninnendruck (IOP) wird nach vorheriger Hornhautanästhesie mit 2 % Novocain-Lösung mit einem Schioetz-Tonometer gemessen. Zur Herstellung einer 2 %igen wäßrigen Lösung wird eine Verbindung der Formel I unter Verwendung von stöchiometrischer wäßriger 0,1 n HCI-Lösung oder ein Salz einer solchen Verbindung direkt in Wasser gelöst. […] Der IOP wird in Abständen von 0,5, 1, 2, 3, 4 und 5 Stunden gemessen. Die prozentuale Abnahme des IOP wird anhand des Ausgangswertes berechnet.
# systolischer Blutdruck = assay: Blood pressure lowering in conscious spontaneously hypertensive rats (tail cuff); type: in vivo, SH-Ratten; details: 25 mg/kg oral once daily for 5 days; difference from baseline, 2 hours after dosing
# Text: Blutdrucksenkung bei wachen hypertonen Ratten
# Die blutdrucksenkende Wirkung wird bei wachen Ratten mit spontaner Hyperonie (SH) ermittelt. Eingesetzt werden dazu männliche SH-Ratten (250 - 300 g, 12 - 16 Wochen alt) des Wistar-Okamoto-Stammes aus eigener Züchtung. Vor der Blutdruckmessung werden die Ratten 10 Minuten bei 37'C in einer Wärmekammer aufgewärmt. Der systolische Blutdruck wird bei den wachen Ratten mittels Schwanzmanschetten-Methode gemessen, wobei ein piezoelektrischer Kristall zur Anzeige des Druckpulses, ein aneroides Manometer zur Druckmessung und ein Kardioskop (BPL-India) zur Anzeige des Verschwindens und/oder Auftretens des Druckpulses verwendet wird.
# Die zu testenden erfindungsgemäßen Verbindungen werden unter Verwendung von stöchiometrischer 0,1 n HCl-Lösung bzw. die Salze direkt in Wasser gelöst und in dieser Form den SH-Ratten 5 Tage lang einmal täglich in einer Dosierung von 25 mg/kg oral verabreicht. Eine Gruppe dient als Kontrolle und erhält das Vehikel. Der systolische Blutdruck wird vor der ersten Verabreichung des Medikamentes und 2 Stunden danach registriert. Eine Senkung des systolischen Blutdruckes ist die Differenz zwischen dem Blutdruck nach der Behandlung und dem Ausgangswert.
# [2] = read-out: % Zunahme der Chronotropen Wirkung
# [3] = read-out: % Zunahme der Koronardurchblutung
# [4] = relative to initial baseline, read-out: % Zunahme der Inotropen Wirkung
# [5] = Dosis 2 %, 100 µl instilled into one eye
structure (smiles),measurement,setting,value
C=C[C@@]1(C)CC(=O)[C@]2(O)[C@@]3(C)[C@@H](O)CCC(C)(C)[C@@H]3[C@H](O)[C@H](OC(=O)CN3CCCC3)[C@@]2(C)O1,activation at 0.01 mg,[1]; [2],24%
same,activation at 0.01 mg,[1]; [3],57%
same,activation at 0.01 mg,[1]; [4],38%
same,ED50,Narkotisierter Hund,0.5 mg/kg
same,EC50,Meerschweinchen-Vorhof,1.8 µg/mL
C=CC1(C)CC(=O)C2(O)C(C)(O1)C(OC(=O)Cn1cnc3c1c(=O)n(C)c(=O)n3C)C(O)C1C(C)(C)CCC(O)C12C (stereo not shown),Senkung des IOP,Augeninnendruck (IOP); [5],21%
same,Dauer,Augeninnendruck (IOP); Dosis 2 %,> 6 Std.
"C=C[C@@]1(C)CC(=O)[C@]2(O)[C@@]3(C)[C@@H](O)CCC(C)(C)[C@@H]3[C@H](O)[C@H](OC(=O)C(C)N3CCOCC3)[C@@]2(C)O1 (stereo partly shown) [the 1st table, row 7]",activation at 0.01 mg,[1]; [2],20%
same,activation at 0.01 mg,[1]; [3],-5%
same,activation at 0.01 mg,[1]; [4],18%
same,ED50,Narkotisierter Hund,0.04 mg/kg
same,Meerschweinchen-Vorhof EC50,Meerschweinchen-Vorhof,10 µg/mL
C=C[C@@]1(C)CC(=O)[C@]2(O)[C@@]3(C)[C@@H](O)CCC(C)(C)[C@@H]3[C@H](OC(=O)CN3CCOCC3)[C@H](O)[C@@]2(C)O1,activation at 0.03 mg,[1]; [2],34%
same,activation at 0.03 mg,[1]; [3],35%
same,activation at 0.03 mg,[1]; [4],23%
same,ED50,Narkotisierter Hund,0.11 mg/kg
same,EC50,Meerschweinchen-Vorhof,0.5 µg/mL
C=CC1(C)CC(=O)C2(O)C(C)(O1)C(OC(=O)C(C)n1cnc3c1c(=O)n(C)c(=O)n3C)C(O)C1C(C)(C)CCC(O)C12C (stereo not shown),EC50,Meerschweinchen-Vorhof,0.9 µg/mL
C=CC1(C)CC(=O)C2(O)C(C)(O1)C(OC(=O)CN1CCCCC1)C(O)C1C(C)(C)CCC(O)C12C (stereo not shown),Senkung des systolischen Blutdruckes,systolischer Blutdruck,35
C=CC1(C)CC(=O)C2(O)C(C)(O1)C(O)C(OC(=O)CN(C)C1CCCCC1)C1C(C)(C)CCC(O)C12C (stereo not shown),Senkung des IOP,Augeninnendruck (IOP); [5],27.5%
same,Dauer,Augeninnendruck (IOP); Dosis 2 %,6 Std.
C=C[C@@]1(C)CC(=O)[C@]2(O)[C@@]3(C)[C@@H](O)CCC(C)(C)[C@@H]3[C@H](OC(=O)CN3CCCCC3)[C@H](O)[C@@]2(C)O1,activation at 0.01 mg,[1]; [2],27%
same,activation at 0.01 mg,[1]; [3],40%
same,activation at 0.01 mg,[1]; [4],32%
same,EC50,Meerschweinchen-Vorhof,2.3 µg/mL
C=CC1(C)CC(=O)C2(O)C(C)(O1)C(O)C(O)C1C(C)(C)CCC(OC(=O)CN3CCCCC3)C12C (stereo not shown),Senkung des IOP,Augeninnendruck (IOP); [5],18%
same,Dauer,Augeninnendruck (IOP); Dosis 2 %,2 Std.
"C=C[C@@]1(C)CC(=O)[C@]2(O)[C@@]3(C)[C@@H](O)CCC(C)(C)[C@@H]3[C@H](O)[C@H](OC(=O)C(C)N3CCOCC3)[C@@]2(C)O1 (stereo partly shown) [the 2nd table, row 3]",activation at 0.03 mg,[1]; [2],32%
same,activation at 0.03 mg,[1]; [3],44%
same,activation at 0.03 mg,[1]; [4],20%
same,Narkotisierter Hund dp/dt max ED50,Narkotisierter Hund,"0,04 mg/kg"
same,Meerschweinchen-Vorhof EC50,Meerschweinchen-Vorhof,"0,266 µg/ml"
C=C[C@@]1(C)CC(=O)[C@]2(O)[C@@]3(C)[C@@H](O)CCC(C)(C)[C@@H]3[C@H](OC(=O)CN3CCSCC3)[C@H](O)[C@@]2(C)O1,ED50,Narkotisierter Hund,> 3 mg/kg
same,EC50,Meerschweinchen-Vorhof,1.5 µg/mL
"C=CC1(C)CC(=O)C2(O)C(C)(O1)C(OC(=O)C(C)N1CCSCC1)C(O)C1C(C)(C)CCC(OC(=O)C(C)N3CCSCC3)C12C (stereo not drawn) [6β-9α-Dihydroxy, 1α,7β-di(α'-thiomorpholinopropionyloxy)-8,13-epoxy-labd-14-en-one-dihydrochlorid-trihydrat]",Senkung des IOP,Augeninnendruck (IOP); Dosis 1 %,19%
same,Dauer,Augeninnendruck (IOP); Dosis 1 %,6 Std.
C=C[C@@]1(C)CC(=O)[C@]2(O)[C@@]3(C)[C@@H](O)CCC(C)(C)[C@@H]3[C@H](O)[C@H](OC(=O)CN3CCCCC3)[C@@]2(C)O1,activation at 0.01 mg,[1]; [2],1%
same,activation at 0.01 mg,[1]; [3],31%
same,activation at 0.01 mg,[1]; [4],18%
same,EC50,Meerschweinchen-Vorhof,22 µg/mL
C=C[C@@]1(C)CC(=O)[C@]2(O)[C@@]3(C)[C@@H](O)CCC(C)(C)[C@@H]3[C@H](OC(=O)C(C)N3CCOCC3)[C@H](O)[C@@]2(C)O1 (stereo partly shown),activation at 0.01 mg,[1]; [2],20%
same,activation at 0.01 mg,[1]; [3],11%
same,activation at 0.01 mg,[1]; [4],45%
same,EC50,Meerschweinchen-Vorhof,4.7 µg/mL
C=CC1(C)CC(=O)C2(O)C(C)(O1)C(OC(=O)Cn1nnc3ccccc31)C(O)C1C(C)(C)CCC(O)C12C (stereo not shown),EC50,Meerschweinchen-Vorhof,> 30 µg/mL
C=CC1(C)CC(=O)C2(O)C(C)(O1)C(O)C(OC(=O)CN1CCCC(C)C1)C1C(C)(C)CCC(O)C12C (stereo not shown),EC50,Meerschweinchen-Vorhof,30 µg/mL
C=C[C@@]1(C)CC(=O)[C@]2(O)[C@@]3(C)[C@@H](O)CCC(C)(C)[C@@H]3[C@H](O)[C@H](OC(=O)CN3CCCC(C)C3)[C@@]2(C)O1 (stereo partly shown),EC50,Meerschweinchen-Vorhof,30 µg/mL
"C=CC1(C)CC(=O)C2(O)C(C)(O1)C(O)C(OC(=O)CCCCN1CCCCC1)C1C(C)(C)CCC(O)C12C (stereo not shown) [the 5th table, row 7]",Senkung des IOP,Augeninnendruck (IOP); Dosis 1 %,23%
same,Dauer,Augeninnendruck (IOP); Dosis 1 %,6 Std.
C=C[C@@]1(C)CC(=O)[C@]2(O)[C@@]3(C)[C@@H](O)CCC(C)(C)[C@@H]3[C@H](OC(=O)CN3CCCC3)[C@H](O)[C@@]2(C)O1,EC50,Meerschweinchen-Vorhof,3 µg/mL
"C=CC1(C)CC(=O)C2(O)C(C)(O1)C(O)C(OC(=O)CCCCN1CCCCC1)C1C(C)(C)CCC(O)C12C (stereo not shown) [the 4th table, row 5]",EC50,Meerschweinchen-Vorhof,30 µg/mL
C=CC1(C)CC(=O)C2(O)C(C)(O1)C(O)C(OC(=O)CN1CCCCCC1)C1C(C)(C)CCC(O)C12C (stereo not shown),EC50,Meerschweinchen-Vorhof,1.9 µg/mL
C=CC1(C)CC(=O)C2(O)C(C)(O1)C(OC(=O)CCCCN1CCCCC1)C(O)C1C(C)(C)CCC(O)C12C (stereo not shown),EC50,Meerschweinchen-Vorhof,30 µg/mL
C=C[C@@]1(C)CC(=O)[C@]2(O)[C@@]3(C)[C@@H](O)CCC(C)(C)[C@@H]3[C@H](OC(=O)CN3CCC(NC(=O)c4ccccc4)CC3)[C@H](O)[C@@]2(C)O1,EC50,Meerschweinchen-Vorhof,1.2 µg/mL
C=C[C@@]1(C)CC(=O)[C@]2(O)[C@@]3(C)[C@@H](O)CCC(C)(C)[C@@H]3[C@H](OC(=O)CN3CCC(C)CC3)[C@H](O)[C@@]2(C)O1,ED50,Narkotisierter Hund,0.39 mg/kg
same,EC50,Meerschweinchen-Vorhof,2.6 µg/mL
C=CC1(C)CC(=O)C2(O)C(C)(O1)C(O)C(OC(=O)CN1CCCCC1)C1C(C)(C)CCC(O)C12C (stereo not shown),Senkung des systolischen Blutdruckes,systolischer Blutdruck,14
C=C[C@@]1(C)CC(=O)[C@]2(O)[C@@]3(C)[C@@H](O)CCC(C)(C)[C@@H]3[C@H](O)[C@H](OC(=O)CN3CCOCC3)[C@@]2(C)O1,activation at 0.01 mg,[1]; [2],35%
same,activation at 0.01 mg,[1]; [3],100%
same,activation at 0.01 mg,[1]; [4],37%
same,EC50,Meerschweinchen-Vorhof,0.35 µg/mL
C=C[C@@]1(C)CC(=O)[C@]2(O)[C@@]3(C)[C@@H](O)CCC(C)(C)[C@@H]3[C@H](O)[C@H](OC(=O)CCCN3CCOCC3)[C@@]2(C)O1,EC50,Meerschweinchen-Vorhof,3 µg/mL
C=C[C@@]1(C)CC(=O)[C@]2(O)[C@@]3(C)[C@@H](O)CCC(C)(C)[C@@H]3[C@H](O)[C@H](OC(=O)CN3CCSCC3)[C@@]2(C)O1,EC50,Meerschweinchen-Vorhof,30 µg/mL
C=C[C@@]1(C)CC(=O)[C@]2(O)[C@@]3(C)[C@@H](O)CCC(C)(C)[C@@H]3[C@H](O)[C@H](OC(=O)CCN3C(=O)c4ccccc4C3=O)[C@@]2(C)O1,EC50,Meerschweinchen-Vorhof,> 3 µg/mL
